From US20230338564A1, “NEODEGRADER CONJUGATES” (Orum Therapeutics, Inc., priority 2020, published 2023)

Columns and labels:
Assay in all cases: In vitro antiproliferation assay, General Procedure 2 (CCK-8)
Assay type in all cases: cell-based
[1] = test system: LOVO cell line; conditions: Homo sapiens, Colon
Source text: (§1) Cell Culture: Cell lines were obtained from the American Type Culture Collection (ATCC, Manassas, VA, USA) or Deutsche Sammlung von Mikroorganismen und Zellkulturen (DSMZ, Braunschweig, Germany) and maintained according to the culturing conditions specified by ATCC or DSMZ. Cells were thawed out and maintained in culture for at least two passages before proceeding with experimental conditions.
(§2) Cytotoxicity assays: For adherent cell lines, the cells were dissociated with enzyme-free PBS-based cell dissociation buffer (Gibco, USA) and plated on tissue culture treated 96-well flat bottom polystyrene plates (Costar, Corning, USA) at appropriate cell densities depending on doubling time of the cells. 18 hours after plating, cells were treated with test articles at appropriate concentrations starting at 100 nM and diluted in 4-fold serial dilutions. For suspension cell lines, the cells were seeded on the same day of treatment and cells were treated as described above. Adherent cells were treated for 5 days and suspension cells were treated for 3 days. Cell proliferation was assessed using the Cell Counting Kit-8 (CCK-8, Dojindo Laboratories, Japan) and measurements were obtained using the Promega GloMax Discover plate reader (Promega, USA). Data were analyzed using GraphPad Prism software (GraphPad Software, San Diego, CA). All data points were obtained from technical triplicates and the experiments were validated using three biological replicates.

[2] = test system: KE39 cell line; conditions: Gastric
Source text: as §1, §2

[3] = test system: SU-DHL-8 cell line; conditions: Homo sapiens, NHL
Source text: as §1, §2

[4] = test system: OCI-M1 cell line; conditions: Acute myeloid leukemia
Source text: as §1, §2

[5] = test system: Daudi cell line; conditions: Homo sapiens, NHL
Source text: as §1, §2

[6] = test system: AGS cell line; conditions: Homo sapiens, Gastric
Source text: as §1, §2

[7] = test system: ASKA synovial sarcoma cell line
Source text: as §1, §2

[8] = test system: OCI-M2 cell line; conditions: Acute myelocytic leukemia
Source text: as §1, §2

[9] = test system: HS-SY-II synovial sarcoma cell line
Source text: as §1, §2

[10] = test system: SKM-1 cell line; conditions: Homo sapiens, SKM-1; Acute myeloid leukemia; read-out: IC50, SKM-1
Source text: as §1, §2

[11] = test system: SKOV3 cell line; conditions: Homo sapiens, SK-OV-3; Ovarian
Source text: as §1, §2

[12] = test system: THP-1 cell line; conditions: Homo sapiens, AML
Source text: as §1, §2

[13] = test system: MOLM13 cell line; conditions: Homo sapiens, MOLM-13; AML; read-out: IC50, MOLM13
Source text: as §1, §2

[14] = test system: JHUEM3 cell line; conditions: Endometrial
Source text: as §1, §2

[15] = test system: RH30 cell line; conditions: Rhabdomyosarcoma
Source text: as §1, §2

[16] = test system: PL-21 cell line; conditions: Acute myeloid leukemia
Source text: as §1, §2

[17] = test system: OCI-AML4 cell line; conditions: Acute myeloid leukemia; read-out: IC50, OCI-AML4
Source text: as §1, §2

[18] = test system: HL-60 cell line; conditions: Homo sapiens, HL-60; AML; read-out: IC50, HL-60
Source text: as §1, §2

[19] = test system: SNU182 cell line; conditions: Homo sapiens, SNU-182; Liver
Source text: as §1, §2

[20] = test system: U251MG cell line; conditions: Homo sapiens, U-251; Brain
Source text: as §1, §2

[21] = test system: MV4-11 cell line; conditions: Homo sapiens, MV4-11; Biphenotypic B myelomonocytic leukemia; read-out: IC50, MV4-11
Source text: as §1, §2

[22] = test system: SK-BR-3 cell line; conditions: Homo sapiens, Breast, read-out: IC50, SKBR3
Source text: as §1, §2

[23] = test system: CMK cell line; conditions: Homo sapiens, Acute megakaryocytic leukemia
Source text: as §1, §2

[24] = test system: ML-2 cell line; conditions: Homo sapiens, ML-2; Acute myelomonocytic leukemia; read-out: IC50, ML-2
Source text: as §1, §2

[25] = test system: BT-474 cell line; conditions: Homo sapiens, Breast, read-out: IC50, BT474
Source text: as §1, §2

[26] = test system: Molp8 cell line; conditions: Homo sapiens, MOLP-8; MM
Source text: as §1, §2

[27] = test system: RPMI7951 cell line; conditions: Homo sapiens, RPMI-7951; Skin
Source text: as §1, §2

[28] = test system: NB-4 cell line; conditions: Homo sapiens, Acute promyelocytic leukemia
Source text: as §1, §2

[29] = test system: OCI-AML2 cell line; conditions: Homo sapiens, OCI-AML2; Acute myeloid leukemia; read-out: IC50, OCI-AML2
Source text: as §1, §2

[30] = test system: THLE2 cell line; conditions: THLE-2; Human liver normal
Source text: as §1, §2

[31] = test system: RH41 cell line; conditions: Homo sapiens, Rhabdomyosarcoma
Source text: as §1, §2

`CNCCOCCc1ccc(NC(=O)NCc2ccc3c(c2)CN(C2CCC(=O)NC2=O)C3=O)cc1Cl` (stereo not shown) [Compound P1, 1-(3-chloro-4-[2-[2-(methylamino)ethoxy]ethyl]phenyl)-3-[[2-(2,6-dioxopiperidin-3-yl)-1-oxo-3H-isoindol-5-yl]methyl]urea] gave an IC50 [1] greater than 1 µM, an IC50 [2] greater than 1 µM and an IC50 [3] of 0.102 µM. The IC50 [4] was greater than 1 µM, the IC50 [5] was 0.0474 µM and the IC50 [6] was greater than 1 µM. For the same compound, the IC50 [7] was 0.0712 µM, the IC50 [8] was 0.65 µM and the IC50 [9] was 0.0117 µM. The IC50 [10] was 0.00321 µM, the IC50 [11] was 0.114 µM and the IC50 [12] was 0.35 µM. The IC50 [13] was 0.0248 µM, the IC50 [14] was greater than 1 µM and the IC50 [15] was 0.174 µM. The IC50 [16] was 0.00755 µM, the IC50 [17] was 0.0224 µM and the IC50 [18] was 0.0123 µM. For the same compound, the IC50 [19] was 0.0127 µM, the IC50 [20] was greater than 1 µM and the IC50 [21] was 0.00272 µM. The IC50 [22] was 0.1 µM, the IC50 [23] was 0.408 µM and the IC50 [24] was 0.00186 µM. The IC50 [25] was 0.013 µM, the IC50 [26] was 0.0237 µM and the IC50 [27] was 0.0971 µM. For the same compound, the IC50 [28] was 0.00863 µM, the IC50 [29] was 0.0959 µM and the IC50 [30] was greater than 1 µM. It also gave an IC50 [31] of 1.21 µM.
